Measured values from patent US9422297B2, “Tricyclic compounds having cytostatic and/or cytotoxic activity and methods of use thereof” (Duquesne University of the Holy Ghost, priority 2007, dated 2016).

Tests used:
Type in all cases: cell-based
PC-3 = experiment: NCI In-Vitro Testing, Prostate Cancer
T-47D = experiment: NCI In-Vitro Testing, Breast Cancer
A498 = experiment: NCI In-Vitro Testing, Renal Cancer
BT-549 = experiment: NCI In-Vitro Testing, Breast Cancer
UACC-62 = experiment: NCI In-Vitro Testing, Melanoma
OCRF-CEM = experiment: NCI In-Vitro Testing, Leukemia
OVCAR-5 = experiment: NCI In-Vitro Testing, Ovarian Cancer
HOP-52 = experiment: NCI In-Vitro Testing, Non-Small Cell Lung Cancer
AS45/ATCC = experiment: NCI In-Vitro Testing, Non-Small Cell Lung Cancer
SF-295 = experiment: NCI In-Vitro Testing, CNS Cancer
HOP-92 = experiment: NCI In-Vitro Testing, Non-Small Cell Lung Cancer
CAKI-1 = experiment: NCI In-Vitro Testing, Renal Cancer
NCI-H322M = experiment: NCI In-Vitro Testing, Non-Small Cell Lung Cancer
NCI-H522 = experiment: NCI In-Vitro Testing, Non-Small Cell Lung Cancer
HCT-116 = experiment: NCI In-Vitro Testing, Colon Cancer
SK-MEL-2 = experiment: NCI In-Vitro Testing, Melanoma
SK-MEL-5 = experiment: NCI In-Vitro Testing, Melanoma
785-0 = experiment: NCI In-Vitro Testing, Renal Cancer

Nc1nc2c(c(Nc3ccc(Cl)cc3)n1)-c1ccccc1C2 [AAG145-136]
GI50 (PC-3): 7.15E−7 Molar
LC50 (PC-3): >1.00E−4 Molar
TGI (PC-3): 7.99E−5 Molar
Percent Growth (PC-3; Log10 Concentration −4.0 Molar): −2%
Percent Growth (PC-3; Log10 Concentration −5.0 Molar): 18%
Percent Growth (PC-3; Log10 Concentration −6.0 Molar): 40%
Percent Growth (PC-3; Log10 Concentration −7.0 Molar): 111%
Percent Growth (PC-3; Log10 Concentration −8.0 Molar): 104%
GI50 (T-47D): 2.90E−6 Molar
LC50 (T-47D): >1.00E−4 Molar
TGI (T-47D): >1.00E−4 Molar
Percent Growth (T-47D; Log10 Concentration −4.0 Molar): 27%
Percent Growth (T-47D; Log10 Concentration −5.0 Molar): 34%
Percent Growth (T-47D; Log10 Concentration −6.0 Molar): 63%
Percent Growth (T-47D; Log10 Concentration −7.0 Molar): 83%
Percent Growth (T-47D; Log10 Concentration −8.0 Molar): 88%
GI50 (A498): 2.49E−6 Molar
LC50 (A498): >1.00E−4 Molar
TGI (A498): 2.85E−5 Molar
Percent Growth (A498; Log10 Concentration −4.0 Molar): −17%
Percent Growth (A498; Log10 Concentration −5.0 Molar): 14%
Percent Growth (A498; Log10 Concentration −6.0 Molar): 74%
Percent Growth (A498; Log10 Concentration −7.0 Molar): 91%
Percent Growth (A498; Log10 Concentration −8.0 Molar): 101%
GI50 (BT-549): 2.83E−6 Molar
LC50 (BT-549): >1.00E−4 Molar
TGI (BT-549): 7.58E−5 Molar
Percent Growth (BT-549; Log10 Concentration −4.0 Molar): −4%
Percent Growth (BT-549; Log10 Concentration −5.0 Molar): 32%
Percent Growth (BT-549; Log10 Concentration −6.0 Molar): 65%
Percent Growth (BT-549; Log10 Concentration −7.0 Molar): 85%
Percent Growth (BT-549; Log10 Concentration −8.0 Molar): 103%
GI50 (UACC-62): 6.41E−7 Molar
LC50 (UACC-62): >1.00E−4 Molar
TGI (UACC-62): >1.00E−4 Molar
Percent Growth (UACC-62; Log10 Concentration −4.0 Molar): 32%
Percent Growth (UACC-62; Log10 Concentration −5.0 Molar): 27%
Percent Growth (UACC-62; Log10 Concentration −6.0 Molar): 38%
Percent Growth (UACC-62; Log10 Concentration −7.0 Molar): 99%
Percent Growth (UACC-62; Log10 Concentration −8.0 Molar): 99%
GI50 (OCRF-CEM): 3.12E−6 Molar
LC50 (OCRF-CEM): >1.00E−4 Molar
TGI (OCRF-CEM): >1.00E−4 Molar
Percent Growth (OCRF-CEM; Log10 Concentration −4.0 Molar): 11%
Percent Growth (OCRF-CEM; Log10 Concentration −5.0 Molar): 6%
Percent Growth (OCRF-CEM; Log10 Concentration −6.0 Molar): 8%
Percent Growth (OCRF-CEM; Log10 Concentration −7.0 Molar): 22%
Percent Growth (OCRF-CEM; Log10 Concentration −8.0 Molar): 77%
LC50 (OVCAR-5): >1.00E−4 Molar
TGI (OVCAR-5): >1.00E−4 Molar
Percent Growth (OVCAR-5; Log10 Concentration −4.0 Molar): 58%
Percent Growth (OVCAR-5; Log10 Concentration −5.0 Molar): 47%
Percent Growth (OVCAR-5; Log10 Concentration −6.0 Molar): 56%
Percent Growth (OVCAR-5; Log10 Concentration −7.0 Molar): 77%
Percent Growth (OVCAR-5; Log10 Concentration −8.0 Molar): 96%
GI50 (HOP-52): 6.54E−7 Molar
LC50 (HOP-52): >1.00E−4 Molar
TGI (HOP-52): >1.00E−4 Molar
Percent Growth (HOP-52; Log10 Concentration −4.0 Molar): 32%
Percent Growth (HOP-52; Log10 Concentration −5.0 Molar): 25%
Percent Growth (HOP-52; Log10 Concentration −6.0 Molar): 40%
Percent Growth (HOP-52; Log10 Concentration −7.0 Molar): 94%
Percent Growth (HOP-52; Log10 Concentration −8.0 Molar): 97%
GI50 (AS45/ATCC): 4.34E−8 Molar
LC50 (AS45/ATCC): >1.00E−4 Molar
TGI (AS45/ATCC): >1.00E−4 Molar
Percent Growth (AS45/ATCC; Log10 Concentration −4.0 Molar): 7%
Percent Growth (AS45/ATCC; Log10 Concentration −5.0 Molar): 15%
Percent Growth (AS45/ATCC; Log10 Concentration −6.0 Molar): 21%
Percent Growth (AS45/ATCC; Log10 Concentration −7.0 Molar): 33%
Percent Growth (AS45/ATCC; Log10 Concentration −8.0 Molar): 30%
GI50 (SF-295): 5.47E−7 Molar
LC50 (SF-295): >1.00E−4 Molar
TGI (SF-295): >1.00E−4 Molar
Percent Growth (SF-295; Log10 Concentration −4.0 Molar): 17%
Percent Growth (SF-295; Log10 Concentration −5.0 Molar): 20%
Percent Growth (SF-295; Log10 Concentration −6.0 Molar): 34%
Percent Growth (SF-295; Log10 Concentration −7.0 Molar): 95%
Percent Growth (SF-295; Log10 Concentration −8.0 Molar): 105%
GI50 (HOP-92): 1.81E−5 Molar
LC50 (HOP-92): >1.00E−4 Molar
TGI (HOP-92): >1.00E−4 Molar
Percent Growth (HOP-92; Log10 Concentration −4.0 Molar): 15%
Percent Growth (HOP-92; Log10 Concentration −5.0 Molar): 62%
Percent Growth (HOP-92; Log10 Concentration −6.0 Molar): 74%
Percent Growth (HOP-92; Log10 Concentration −7.0 Molar): 96%
Percent Growth (HOP-92; Log10 Concentration −8.0 Molar): 100%
GI50 (CAKI-1): 1.08E−6 Molar
LC50 (CAKI-1): >1.00E−4 Molar
TGI (CAKI-1): >1.00E−4 Molar
Percent Growth (CAKI-1; Log10 Concentration −4.0 Molar): 15%
Percent Growth (CAKI-1; Log10 Concentration −5.0 Molar): 25%
Percent Growth (CAKI-1; Log10 Concentration −6.0 Molar): 51%
Percent Growth (CAKI-1; Log10 Concentration −7.0 Molar): 97%
Percent Growth (CAKI-1; Log10 Concentration −8.0 Molar): 105%
GI50 (NCI-H322M): 1.35E−6 Molar
LC50 (NCI-H322M): >1.00E−4 Molar
TGI (NCI-H322M): >1.00E−4 Molar
Percent Growth (NCI-H322M; Log10 Concentration −4.0 Molar): 39%
Percent Growth (NCI-H322M; Log10 Concentration −5.0 Molar): 32%
Percent Growth (NCI-H322M; Log10 Concentration −6.0 Molar): 53%
Percent Growth (NCI-H322M; Log10 Concentration −7.0 Molar): 101%
Percent Growth (NCI-H322M; Log10 Concentration −8.0 Molar): 103%
GI50 (NCI-H522): 6.22E−7 Molar
LC50 (NCI-H522): >1.00E−4 Molar
TGI (NCI-H522): 3.88E−5 Molar
Percent Growth (NCI-H522; Log10 Concentration −4.0 Molar): −10%
Percent Growth (NCI-H522; Log10 Concentration −5.0 Molar): 14%
Percent Growth (NCI-H522; Log10 Concentration −6.0 Molar): 40%
Percent Growth (NCI-H522; Log10 Concentration −7.0 Molar): 89%
Percent Growth (NCI-H522; Log10 Concentration −8.0 Molar): 96%
GI50 (HCT-116): 3.81E−8 Molar
LC50 (HCT-116): >1.00E−4 Molar
TGI (HCT-116): >1.00E−4 Molar
Percent Growth (HCT-116; Log10 Concentration −4.0 Molar): 6%
Percent Growth (HCT-116; Log10 Concentration −5.0 Molar): 13%
Percent Growth (HCT-116; Log10 Concentration −6.0 Molar): 13%
Percent Growth (HCT-116; Log10 Concentration −7.0 Molar): 23%
Percent Growth (HCT-116; Log10 Concentration −8.0 Molar): 87%
GI50 (SK-MEL-2): 5.58E−7 Molar
LC50 (SK-MEL-2): >1.00E−4 Molar
TGI (SK-MEL-2): >1.00E−4 Molar
Percent Growth (SK-MEL-2; Log10 Concentration −4.0 Molar): 16%
Percent Growth (SK-MEL-2; Log10 Concentration −5.0 Molar): 27%
Percent Growth (SK-MEL-2; Log10 Concentration −6.0 Molar): 35%
Percent Growth (SK-MEL-2; Log10 Concentration −7.0 Molar): 95%
Percent Growth (SK-MEL-2; Log10 Concentration −8.0 Molar): 98%
GI50 (SK-MEL-5): 5.13E−7 Molar
LC50 (SK-MEL-5): >1.00E−4 Molar
TGI (SK-MEL-5): 1.59E−5 Molar
Percent Growth (SK-MEL-5; Log10 Concentration −4.0 Molar): −45%
Percent Growth (SK-MEL-5; Log10 Concentration −5.0 Molar): 11%
Percent Growth (SK-MEL-5; Log10 Concentration −6.0 Molar): 35%
Percent Growth (SK-MEL-5; Log10 Concentration −7.0 Molar): 87%
Percent Growth (SK-MEL-5; Log10 Concentration −8.0 Molar): 95%
GI50 (785-0): 5.14E−7 Molar
LC50 (785-0): >1.00E−4 Molar
TGI (785-0): >1.00E−4 Molar
Percent Growth (785-0; Log10 Concentration −4.0 Molar): 16%
Percent Growth (785-0; Log10 Concentration −5.0 Molar): 26%
Percent Growth (785-0; Log10 Concentration −6.0 Molar): 31%
Percent Growth (785-0; Log10 Concentration −7.0 Molar): 97%
Percent Growth (785-0; Log10 Concentration −8.0 Molar): 102%
